“And” between values parts separate entries of the source, which are not always exact repeats. Identical values can stand only once.
Tests used:
[1] = system: CHO-K1 cells transfected with TRU-016; assay: Effect of castanospermine on CHO-K1 TRU-016 production, shake flasks; format: cell-based, Chinese hamster; details: for Average TRU-016 Produced (μg/mL) ± SD: duplicate flasks; for Viability at Harvest (%): harvest day 10, listed as CS
Protocol: Prior to initiation of the experiments, CHO-K1 cells transfected with TRU-016 (CAS029f053) were grown in vented shake flasks in CD-CHO chemically-defined media (GIBCO-Invitrogen) supplemented with 25 uM methionine sulfoximine (MSX) at 37° C. and 5% carbon dioxide in a humidified incubator. Shaker speed was set at 125 RPM. A 400 mM stock concentration of castanospermine (Alexis Biochemicals) was prepared by dilution of the CS in sterile, distilled/deionized water (MediaTech) followed by filtration through a 13 mm Acrodisc® with a 0.2 μm HT Tuffryn membrane (Pall Corporation). Stock solution was aliquoted into sterile, O-ringed, 0.5 mL microcentrifuge tubes (Fisherbrand, Fisher Scientific) and frozen at −20° C. Approximately 1 hour prior to initiation of experiments, needed aliquots were thawed at room temperature and the contents of each vial mixed well by vortexing.
For the experiment, cells in log phase growth were seeded in the above medium into a volume of 60 mL in 250 mL shaker flasks at a density of 220,000 cells/mL and CS added at the concentration to be tested. Final CS concentrations of 800 μM, 400 μM, 200 μM, 100 μM, 50 μM, 25 μM and 0 μM were each tested in duplicate flasks. All shake flasks were incubated on a shaker platform set at 125 RPM at 37° C. and 5% carbon dioxide in a humidified incubator. Cultures were monitored at least every other day for viable cell density and overall cell viability.
Cultures were harvested on day 10 when overall cell viability was 49-62%. Cells and cellular debris were removed by centrifugation in a Sorvall Super T21 at 3000 rpm for 20 minutes after which the supernatant was sterile filtered through a Millipore Steriflip unit with a 0.22 μm Millipore Express Plus membrane and stored at 4° C. until purified.

BJAB B cells = assay: ADCC, 51Cr-labeled BJAB B cells with human PBMC effectors; format: cell-based
Protocol: To determine the ADCC activity of purified TRU-016, labeled BJAB B cells were used as targets and human peripheral blood mononuclear cells (PBMC) as effector cells. BJAB B cells (10^7 cells) were labeled with 500 μCi/mL ^51Cr sodium chromate for 2 hours at 37° C. in IMDM/10% FBS. PBMCs were isolated from heparinized, human whole blood by fractionation over Lymphocyte Separation Media (LSM, ICN Biomedical) gradients. Reagent samples were added to RPMI media with 10% FBS and serial dilutions of each reagent were prepared. The ^51Cr labeled BJAB were added at 2×10^4 cells/well. The PBMCs were then added at 5×10^5 cells/well for a final ratio of 25:1 effectors (PBMC):targets (BJAB). Reactions were set up in quadruplicate wells of a 96 well plate. Reactions were allowed to proceed for 6 hours at 37° C. in 5% CO2 prior to harvesting and counting. CPM released was measured on a Packard TopCounNXT from 50 μl dried culture supernatant. Percent specific killing was calculated by subtracting (cpm [mean of quadruplicate samples] of sample−cpm spontaneous release)/(cpm maximal release−cpm spontaneous release)×100, and data were plotted as % specific killing versus TRU-016 concentration.

CD16 (Fcγ RIII) = assay: Binding of SMIP bound on WIL2-S cells to soluble FcγR-MIg fusion (CD16), flow cytometry
Protocol: The assays were carried out as follows. […] The cells were then incubated with the desired FcγR-MIg fusion in the same diluent at a concentration of 1 μg/ml on ice for 45 minutes.
The complexes (WIL2-S cells/SMIP/FcγR-MIg) were then incubated with PE conjugated AffiniPure F(Ab′)2 Goat Anti-Mouse IgG [Jackson Immunoresearch] (a mouse Fc-specific antibody with minimal cross reactivity with human Fc) at a 1:100 dilution. The cells were analyzed by one-color flow cytometry on a FACsCalibur using CellQuest software (Becton Dickinson).
If TRU-016 supernatants from Example 2 were used in this assay instead of purified TRU-016 protein, the SMIP concentration in the supernatant was quantified by direct staining of WIL2-S cells with diluted supernatant along with a TRU-016 standard. TRU-016 was detected by staining with FITC conjugated F(Ab′)2 Goat Anti-Human (gamma) [Caltag H10101] at a 1:50 dilution.

[2] = system: CHO cells expressing TRU-016; assay: Growth and viability of CHO cells expressing TRU-016 cultured with carbohydrate modifier; format: cell-based, Chinese hamster; details: castanospermine up to 1000 μM, up to 144 hours
Protocol: For shake flask runs, log phase host cells were seeded in shake flasks at 100,000 cells/ml with carbohydrate modifier at the concentration to be tested, and optionally with methotrexate (MTX) @ 50 nM.
Cells were seeded at 3×10^6/mL in 1350 mL of Ex-Cell 302 culture media (SATC Biosciences; with added non-essential amino acids, pyrucate, L-glutamine, pen/strep, HT Supplement and insulin, all from Invitrogen) at t=0 and brought to 5 L total volume at T>=72 hours. The cells were incubated at 37° C. and 5% carbon dioxide and monitored for growth and viability daily starting at day 6-7. Supernatants were typically harvested at day 10-12 when cell viability dropped below 60%.
Na-Azide was added to 0.02%, cells were removed by centrifugation and supernatant was filter sterilized through a 0.22 uM filter. Some assays described in other examples herein were performed on the supernatants as indicated, while other assays were performed on material that underwent further protein A purification. […] Cells were incubated at 37° C. and 5% carbon dioxide and monitored daily for growth and viability. […]

O[C@H]1[C@H](O)[C@@H](O)CN2CC[C@H](O)[C@H]12 [castanospermine]
CS concentration at which the maximal suppressive effect on TRU-016 production was reached ([1]; CHO-K1): 200 µM
Average ICA (10^6 cells * days/mL) ± SD ([1]; CS 25 μM): 40.8 ± 0.4 10^6 cells * days/mL
Average Specific Productivity (pg/cell/day) ± SD ([1]; CS 25 μM): 10.29 ± 0.18 pg/cell/day
Average TRU-016 Produced as a % of Control ± SD ([1]; CS 25 μM): 96.7 ± 2.6%
Average TRU-016 Produced (μg/mL) ± SD ([1]; CS 25 μM): 419.36 ± 11.1 µg/mL
Viability at Harvest (%) ([1]; CS 25 μM): 57.7% and 53.0%
Average ICA (10^6 cells * days/mL) ± SD ([1]; CS 50 μM): 41.6 ± 0.9 10^6 cells * days/mL
Average Specific Productivity (pg/cell/day) ± SD ([1]; CS 50 μM): 10.18 ± 0.45 pg/cell/day
Average TRU-016 Produced as a % of Control ± SD ([1]; CS 50 μM): 97.5 ± 6.4%
Average TRU-016 Produced (μg/mL) ± SD ([1]; CS 50 μM): 422.84 ± 27.8 µg/mL
Viability at Harvest (%) ([1]; CS 50 μM): 61.3%
Average ICA (10^6 cells * days/mL) ± SD ([1]; CS 100 μM): 39.0 ± 0.4 10^6 cells * days/mL
Average Specific Productivity (pg/cell/day) ± SD ([1]; CS 100 μM): 10.48 ± 0.07 pg/cell/day
Average TRU-016 Produced as a % of Control ± SD ([1]; CS 100 μM): 94.3 ± 1.6%
Average TRU-016 Produced (μg/mL) ± SD ([1]; CS 100 μM): 408.60 ± 6.9 µg/mL
Viability at Harvest (%) ([1]; CS 100 μM): 61.2% and 55.1%
Average ICA (10^6 cells * days/mL) ± SD ([1]; CS 200 μM): 40.1 ± 2.3 10^6 cells * days/mL
Average Specific Productivity (pg/cell/day) ± SD ([1]; CS 200 μM): 10.04 ± 0.69 pg/cell/day
Average TRU-016 Produced as a % of Control ± SD ([1]; CS 200 μM): 92.7 ± 1.2%
Average TRU-016 Produced (μg/mL) ± SD ([1]; CS 200 μM): 401.93 ± 5.0 µg/mL
Viability at Harvest (%) ([1]; CS 200 μM): 61.8% and 56.4%
Average ICA (10^6 cells * days/mL) ± SD ([1]; CS 400 μM): 37.6 ± 0.3 10^6 cells * days/mL
Average Specific Productivity (pg/cell/day) ± SD ([1]; CS 400 μM): 10.68 ± 0.28 pg/cell/day
Average TRU-016 Produced as a % of Control ± SD ([1]; CS 400 μM): 92.6 ± 3.1%
Average TRU-016 Produced (μg/mL) ± SD ([1]; CS 400 μM): 401.22 ± 13.3 µg/mL
Viability at Harvest (%) ([1]; CS 400 μM): 56.1% and 62.4%
Average ICA (10^6 cells * days/mL) ± SD ([1]; CS 800 μM): 37.6 ± 1.0 10^6 cells * days/mL
Average Specific Productivity (pg/cell/day) ± SD ([1]; CS 800 μM): 10.68 ± 0.40 pg/cell/day
Average TRU-016 Produced as a % of Control ± SD ([1]; CS 800 μM): 92.5 ± 1.0%
Average TRU-016 Produced (μg/mL) ± SD ([1]; CS 800 μM): 401.14 ± 4.1 µg/mL
Viability at Harvest (%) ([1]; CS 800 μM): 58.1% and 59.7%
average specific productivity of the cells ([1]; CS 25-800 μM): no significant effect
overall cell viability or growth (integral cell area) ([1]; CS 25-800 μM): did not appear to significantly affect
decrease in production of TRU-016 relative to control ([1]; CS 25-800 μM, even at the highest concentration of 800 μM): ≤ 7.5%
ADCC activity of TRU-016 purified protein (% specific killing) (BJAB B cells; 0, 10, 25, 50, 100 or 200 μM castanospermine in culture media): dose-dependent increase
ADCC activity of TRU-015 purified protein (% specific killing) (BJAB B cells; 0-100 μg/mL castanospermine in culture media, PBMC from high affinity (V/V158) and low affinity (F/F158) CD16 donors): dose-dependent increase
ADCC of TRU-016 purified protein (% specific killing) (BJAB B cells; culture media containing 200 μM DMJ, 10 μM kifenunsine or 200 μM castanospermine): improved
CD16 binding of Protein A-purified TRU-016 (mean fluorescence intensity) (CD16 (Fcγ RIII); CHO cells cultured with 0, 10, 25, 50, 100 or 200 μM castanospermine): dose-dependent increase
CD16 binding of TRU-015 purified protein (geometric mean fluorescence intensity) (CD16 (Fcγ RIII); low affinity allele, CHO cells cultured with 0, 2, 5, 10, 30 or 100 μg/mL castanospermine): dose-dependent increase
cell counts [2]: did not affect
percent cell viability [2]: did not affect

— US7846434B2, “Materials and methods for improved immunoglycoproteins” (Trubion Pharmaceuticals, Inc., priority 2006, dated 2010)
